Assay results as given in patent publication US20070275854A1, “Agrochemical Composition Containing Phosphoric Acid Ester” (priority 2004, published 2007).

Experiments:
Type in all cases: in vivo
[1] = tested on: Lolium perenne L. (LOLPE); assay: Glasshouse herbicide efficacy of imazethapyrammonium with adjuvants, fresh weight after 14 days; details: imazethapyrammonium 4.0 g ae/ha, adjuvant where named 0.25% w/v, plants in 2-3-leaf stage, untreated 13.97 g
Protocol: (§1) Test formulations are prepared by adjusting an aqueous solution of imazethapyrammonium to a concentration of 5 mmol. The adjuvants are added to this solution in an amount corresponding to a concentration of 0.25% w/v (2.5 g/l). These test solutions are applied in various concentrations (concentration stated g ae/ha, where ae means acidic equivalent) to the plant species Solanum Nigrum L. (SOLNI) and Lolium perenne L. (LOLPE) while they are in the 2-3-leaf stage in a glasshouse as shown in the following table.
(§2) After 14 days, the efficacy of the herbicidal formulation is assessed by weighing the plant parts still present (fresh weight).

[2] = tested on: Solanum Nigrum L. (SOLNI); assay: as above; details: imazethapyrammonium 4.0 g ae/ha, adjuvant where named 0.25% w/v, plants in 2-3-leaf stage, untreated 15.42 g
Protocol: as §1, §2

[3] = tested on: Avena fatura L. (AVEFA); assay: Glasshouse herbicide efficacy of clodinafop propargyl (Topic 240) with adjuvants, fresh weight after 21 days; details: clodinafop propargyl 5 g a.i./ha (Topic 240 in water), adjuvant where named 0.25% w/v, plants in 2-3-leaf stage, untreated 17.48 g
Protocol: Test formulations are prepared by mixing the commercially available formulation Topic 240, which contains 240 g of clodinafop propargyl per liter of formulation, as stated by the manufacturer (Syngenta), with water. The adjuvants are added to this emulsion in an amount corresponding to a concentration of 0.25% w/v (2.5 g/l). These test solutions are applied in various concentrations (concentration stated in g a.i/ha, where a.i. means active ingredient) to the plant species Avena fatura L. (AVEFA) while they are in the 2-3-leaf stage in a glasshouse as shown in the following table.
After 21 days, the efficacy of the herbicidal formulation is assessed by weighing the plant parts which are still present (fresh weight).

SMILES | fresh weight [g] LOLPE [1] [g] | fresh weight [g] SOLNI [2] [g] | fresh weight [g] AVEFA [3] [g]
CCc1cnc(C2=NC(C)(C(C)C)C(=O)N2)c(C(=O)O)c1.N (stereo not drawn) [Imazethapyrammonium, imazethapyrammonium] | 13.40 | 10.61 | –
C#CCOC(=O)[C@@H](C)Oc1ccc(Oc2ncc(Cl)cc2F)cc1 [Clodinafop propargyl, clodinafop propargyl] | – | – | 15.69
